Measurements from PubChem BioAssay AID248 (DTP/NCI, 2004).
Several values for one entry are separate records, joined by “and”; a condition that tells them apart may be missing. Equal entries are not always repeated. Inconclusive results and toxic doses are left out.

System: L1210 leukemia ip in BDF1 mice, survival T/C
Assay: NCI In Vivo Anticancer Drug Screen. Data for tumor model L1210 Leukemia (intraperitoneal) in B6D2F1 (BDF1) mice
Conditions: endpoint: mean survival time, higher = longer survival
Method in brief: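 In this screen, tumor-bearing mice given compound are compared to those given vehicle, and their survival values are reported as a treated-to-control quotient.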

[1] = dose: 100.0 mg/kg/injection, schedule: Q01DX001 (ip), vehicle: saline
[2] = dose: 200.0 mg/kg/injection, schedule: Q01DX001 (ip), vehicle: saline
[3] = dose: 400.0 mg/kg/injection, schedule: Q01DX001 (ip), vehicle: saline
[4] = dose: 100.0 mg/kg/injection, schedule: Q04DX003 (ip), vehicle: Klucel (hydroxypropylcellulose) (HPC)
[5] = dose: 200.0 mg/kg/injection, schedule: Q04DX003 (ip), vehicle: Klucel (hydroxypropylcellulose) (HPC)
[6] = dose: 400.0 mg/kg/injection, schedule: Q04DX003 (ip), vehicle: Klucel (hydroxypropylcellulose) (HPC)
[7] = dose: 100.0 mg/kg/injection, schedule: Q04DX002 (ip), vehicle: Klucel (hydroxypropylcellulose) (HPC)
[8] = dose: 200.0 mg/kg/injection, schedule: Q04DX002 (ip), vehicle: Klucel (hydroxypropylcellulose) (HPC)
[9] = dose: 400.0 mg/kg/injection, schedule: Q04DX002 (ip), vehicle: Klucel (hydroxypropylcellulose) (HPC)
[10] = dose: 100.0 mg/kg/injection, schedule: Q01DX009 (ip), vehicle: Klucel (hydroxypropylcellulose) (HPC)
[11] = dose: 200.0 mg/kg/injection, schedule: Q01DX009 (ip), vehicle: Klucel (hydroxypropylcellulose) (HPC)
[12] = dose: 50.0 mg/kg/injection, schedule: Q01DX001 (ip), vehicle: saline
[13] = dose: 400.0 mg/kg/injection, schedule: Q01DX009 (ip), vehicle: Klucel (hydroxypropylcellulose) (HPC)
[14] = dose: 100.0 mg/kg/injection, schedule: Q04DX002 (ip), vehicle: saline with Tween-80

In the case of CC[n+]1ccc(Nc2ccc(NC(=O)c3ccc(Nc4cc[n+](CC)c5ccc([N+](=O)[O-])cc45)cc3)cc2)cc1, the T/C (dose: 4.13 mg/kg/injection, schedule: Q04DX003 (ip), vehicle: saline sonified) is reported as 114 % of control, the T/C (dose: 4.5 mg/kg/injection, schedule: Q01DX009 (ip), vehicle: Klucel (hydroxypropylcellulose) (HPC)) is reported as 117 % of control and the T/C (dose: 6.25 mg/kg/injection, schedule: Q04DX003 (ip), vehicle: Klucel (hydroxypropylcellulose) (HPC)) is reported as 108 % of control. The T/C (dose: 6.25 mg/kg/injection, schedule: Q04DX003 (ip), vehicle: saline sonified) was 117 % of control, the T/C (dose: 9.38 mg/kg/injection, schedule: Q04DX003 (ip), vehicle: saline sonified) was 115 % of control and the T/C (dose: 10.44 mg/kg/injection, schedule: Q01DX009 (ip), vehicle: saline with Tween-80) was 117 % of control. For the same molecule, the T/C (dose: 11.0 mg/kg/injection, schedule: Q01DX009 (ip), vehicle: saline) was 115 % of control, the T/C (dose: 12.5 mg/kg/injection, schedule: Q01DX001 (ip), vehicle: Klucel (hydroxypropylcellulose) (HPC)) was 100 % of control and the T/C (dose: 12.5 mg/kg/injection, schedule: Q04DX003 (ip), vehicle: Klucel (hydroxypropylcellulose) (HPC)) was 112 % of control. For the same molecule, the T/C (dose: 16.5 mg/kg/injection, schedule: Q01DX009 (ip), vehicle: Klucel (hydroxypropylcellulose) (HPC)) was 175 % of control, the T/C (dose: 25.0 mg/kg/injection, schedule: Q01DX001 (ip), vehicle: Klucel (hydroxypropylcellulose) (HPC)) was 102 % of control and the T/C (dose: 25.0 mg/kg/injection, schedule: Q01DX009 (ip), vehicle: Klucel (hydroxypropylcellulose) (HPC)) was 160 % of control. For the same molecule, the T/C (dose: 25.0 mg/kg/injection, schedule: Q01DX009 (ip), vehicle: saline sonified) was 230 % of control, the T/C (dose: 25.0 mg/kg/injection, schedule: Q01DX009 (ip), vehicle: saline) was 160 % of control and the T/C (dose: 25.0 mg/kg/injection, schedule: Q04DX003 (ip), vehicle: Klucel (hydroxypropylcellulose) (HPC)) was 122 % of control. The T/C (dose: 37.5 mg/kg/injection, schedule: Q01DX009 (ip), vehicle: saline) was 184 % of control.
With C[C@H]1/C(=C/C(=O)OCCN(C)C)CC[C@H]2[C@H]1C(=O)C[C@H]1C(C)(C)[C@@H](O)CC[C@]21C the T/C (dose: 5.0 mg/kg/injection, schedule: Q01DX001 (ip), vehicle: other) was 106 % of control, the T/C (dose: 10.0 mg/kg/injection, schedule: Q01DX001 (ip), vehicle: other) was 97 % of control and the T/C (dose: 20.0 mg/kg/injection, schedule: Q01DX001 (ip), vehicle: other) was 97 % of control.
For O=CC(OC(=O)c1ccccc1)C(OC(=O)c1ccccc1)C(CO)OC(=O)c1ccccc1 (stereo not drawn), the T/C (dose: 100.0 mg/kg/injection, schedule: Q01DX001 (ip), vehicle: Klucel (hydroxypropylcellulose) (HPC)) was 106 % of control, the T/C (dose: 200.0 mg/kg/injection, schedule: Q01DX001 (ip), vehicle: Klucel (hydroxypropylcellulose) (HPC)) was 95 % of control and the T/C (dose: 400.0 mg/kg/injection, schedule: Q01DX001 (ip), vehicle: Klucel (hydroxypropylcellulose) (HPC)) was 98 % of control.
For CCS(=O)(=O)C1CCC1OC(C)(C)C (stereo not drawn), the T/C [1] was 108 % of control, the T/C [2] was 108 % of control and the T/C [3] was 102 % of control.
For O=C1OCCC1n1cc(F)c(=O)[nH]c1=O (stereo not drawn), the T/C [4] was 102 % of control, the T/C [5] was 98 % of control and the T/C [6] was 96 % of control.
In the case of Cc1ccc2[nH]c(CC#N)cc2c1, the T/C [7] is reported as 104 % of control, the T/C [8] is reported as 93 % of control and the T/C [9] is reported as 100 % of control.
Cc1nc2ccccc2n(O)c1=O was tested, and the T/C (dose: 50.0 mg/kg/injection, schedule: Q01DX009 (ip), vehicle: Klucel (hydroxypropylcellulose) (HPC)) was 97 % of control, the T/C [10] was 93 % of control and the T/C [11] was 89 % of control.
For CC(=O)Nc1cc([N+](=O)[O-])ccc1OCc1ccccc1, the T/C [12] was 92 % of control, the T/C [1] was 91 % of control and the T/C [2] was 88 % of control. For the same molecule, the T/C [3] was 97 % of control.
C1CCCC(NNC2CCCCCCC2)CCC1 was tested, and the T/C [1] was 94 % of control.
For Nc1n[nH]c(N)n1.[Co], the T/C (dose: 50.0 mg/kg/injection, schedule: Q04DX003 (ip), vehicle: saline) was 103 % of control, the T/C (dose: 100.0 mg/kg/injection, schedule: Q01DX009 (ip), vehicle: saline) was 100 % of control and the T/C (dose: 100.0 mg/kg/injection, schedule: Q04DX003 (ip), vehicle: saline) was 100 % of control. For the same molecule, the T/C (dose: 200.0 mg/kg/injection, schedule: Q01DX009 (ip), vehicle: saline) was 94 % of control, the T/C (dose: 200.0 mg/kg/injection, schedule: Q04DX003 (ip), vehicle: saline) was 108 % of control and the T/C (dose: 400.0 mg/kg/injection, schedule: Q01DX009 (ip), vehicle: saline) was 107 % of control. For the same molecule, the T/C (dose: 400.0 mg/kg/injection, schedule: Q04DX003 (ip), vehicle: saline) was 105 % of control.
CN(N=O)c1ccccc1 was tested, and the T/C [12] was 93 % of control, the T/C [1] was 93 % of control and the T/C [2] was 98 % of control. The T/C [3] was 102 % of control.
For COC(=O)NNC(=O)OC, the T/C (dose: 50.0 mg/kg/injection, schedule: Q01DX001 (ip), vehicle: carboxymethylcellulose (CMC)) was 89 % of control, the T/C (dose: 100.0 mg/kg/injection, schedule: Q01DX001 (ip), vehicle: carboxymethylcellulose (CMC)) was 94 % of control and the T/C [10] was 97 % of control. For the same molecule, the T/C (dose: 200.0 mg/kg/injection, schedule: Q01DX001 (ip), vehicle: carboxymethylcellulose (CMC)) was 97 % of control, the T/C [11] was 100 % of control and the T/C (dose: 400.0 mg/kg/injection, schedule: Q01DX001 (ip), vehicle: carboxymethylcellulose (CMC)) was 103 % of control. For the same molecule, the T/C [13] was 103 % of control.
C[N+](C)(C)Cc1ncccc1OC(=O)N(c1ccccc1)c1ccccc1 was tested, and the T/C (dose: 25.0 mg/kg/injection, schedule: Q04DX003 (ip), vehicle: saline with Tween-80) was 96 % of control, the T/C (dose: 50.0 mg/kg/injection, schedule: Q04DX003 (ip), vehicle: saline with Tween-80) was 96 % of control and the T/C (dose: 100.0 mg/kg/injection, schedule: Q04DX003 (ip), vehicle: saline with Tween-80) was 96 % of control and 101 % of control.
With CC1CCCC(C)N1NC(=O)NCCCl (stereo not drawn) the T/C [10] was 100 % of control, the T/C [4] was 100 % of control and the T/C [11] was 102 % of control. The T/C [5] was 100 % of control, the T/C [13] was 102 % of control and the T/C [6] was 97 % of control.
With O=C(Nc1cc(Cl)ccc1Cl)OCCCl the T/C [7] was 97 % of control, the T/C [8] was 102 % of control and the T/C [9] was 97 % of control.
CCCCOP(=O)(OCCCC)c1ccccc1OC was tested, and the T/C (dose: 25.0 mg/kg/injection, schedule: Q04DX002 (ip), vehicle: saline with Tween-80) was 99 % of control, the T/C (dose: 50.0 mg/kg/injection, schedule: Q04DX002 (ip), vehicle: saline with Tween-80) was 99 % of control and the T/C [14] was 96 % of control and 89 % of control.
For Cc1ccc(C(=O)/C=C/c2ccc(Cl)c(Cl)c2)c(C)c1, the T/C (dose: 100.0 mg/kg/injection, schedule: Q01DX009 (ip), vehicle: saline with Tween-80) was 92 % of control, the T/C [14] was 98 % of control and the T/C (dose: 200.0 mg/kg/injection, schedule: Q01DX009 (ip), vehicle: saline with Tween-80) was 95 % of control. The T/C (dose: 200.0 mg/kg/injection, schedule: Q04DX002 (ip), vehicle: saline with Tween-80) was 91 % of control, the T/C (dose: 400.0 mg/kg/injection, schedule: Q01DX009 (ip), vehicle: saline with Tween-80) was 109 % of control and the T/C (dose: 400.0 mg/kg/injection, schedule: Q04DX002 (ip), vehicle: saline with Tween-80) was 91 % of control.
With O=C(Nc1ccc(OP(=O)(O)O)cc1)c1ccc(C(=O)Nc2ccc(OP(=O)(O)O)cc2)cc1 the T/C (dose: 2.5 mg/kg/injection, schedule: Q01DX Z (ip), vehicle: water) was 96 % of control, the T/C (dose: 5.0 mg/kg/injection, schedule: Q01DX Z (ip), vehicle: water) was 104 % of control and the T/C (dose: 7.5 mg/kg/injection, schedule: Q01DX Z (ip), vehicle: water) was 93 % of control. The T/C (dose: 10.0 mg/kg/injection, schedule: Q01DX Z (ip), vehicle: water) was 93 % of control and the T/C (dose: 18.7 mg/kg/injection, schedule: Q01DX Z (ip), vehicle: water) was 104 % of control.
